Laboratory results published in publication PMC3156232, “Rapid Probing of Biological Surfaces with a Sparse-Matrix Peptide Library” (PLoS ONE, 2011).
Entries after “also recorded” stand apart in the source; their conditions may differ.

What was measured:
[1] = test system: S. aureus; assay: Fluorescence microscopy screening of FAM-labeled peptides against immobilized cells; assay type: binding, Staphylococcus aureus; conditions: FAM-labeled peptide 25 µM, 10 minutes, washed, result in words
Description: (§1) Peptide samples were prepared at a concentration of 25 µM for screening. For bacterial and yeast binding assays, cells were grown overnight, washed, and immobilized in a polylysine-coated 96-well plate, except in the case of S. mutans biofilms, where 10^5 cells were inoculated into 400 µl of Todd Hewitt broth in 48-well plates and biofilms were grown anaerobically for 24 hr. FAM-labeled peptides were applied to immobilized cell, yeast, and bacterial cultures, incubated for 10 minutes and washed extensively to remove unbound peptide. Samples were visualized by fluorescence microscopy (Nikon E400). For each peptide, both brightfield and fluorescence images were collected with the manufacturer-supplied software (SPOT, Diagnostic Instruments, Sterling Heights, MI). Post-collection, the locations of cells and background regions were determined using the brightfield images; those regions were then selected in the fluorescence images for quantitation of pixel values for determination of relative fluorescence intensities using The GIMP (http://www.gimp.org), [33]. Due to the variation in the levels of binding of the peptide to the well, these values are represented as bacterial fluorescence/background fluorescence, in order to remove the effects of precipitation or nonspecific binding from the final measurement.

[2] = test system: wild type M. xanthus; assay: as above; assay type: binding, Myxococcus xanthus; conditions: FAM-labeled peptide 25 µM, 10 minutes, result in words
Description: as §1

[3] = Tooth section binding by confocal laser scanning microscopy; conditions: sectioned human teeth, FAM-labeled peptide, CLSM; result in words
Text: For tooth binding assays, FAM-labeled pilot matrix peptides were collected into four pools of 9 peptides each. Peptides were screened by exposing pools to sections taken from a collection of anonymous human teeth (extracted during normal clinical practice), followed by visualization of the samples by Confocal Laser Scanning Microscopy (CLSM).

[4] = test system: wild type S. mutans (UA140); assay: Fluorescence microscopy binding to S. mutans; design: species or system Streptococcus mutans; conditions: FAM-labeled peptide, result in words
Description: as §1

[5] = test system: S. mutans gtfB mutant; assay: Fluorescence microscopy binding to surface mutant; design: species or system Streptococcus mutans; conditions: FAM-labeled peptide, result in words
Description: as §1

Which “Binding to immobilized S. aureus cells (fluorescence staining)” value [1] does the source give for AMKDAMERM [Pilot Library E4] here?
The value was “preferentially binds”.

And the “Binding to wild-type M. xanthus cells (fluorescence staining)” value [2]?
The value was “preferentially binds”.

And the “Binding to tooth dentin” value [3]?
Its value is “no obvious binding”.

And the “Binding to tooth enamel and enamel-proximal region of the dentino-enamel junction” value [3]?
The value was “clear binding”.

For AMQDAMNEM [Pilot Library E6], which “Binding to tooth dentin” value [3] is on record?
The value was “bound selectively to dentin”.

With IWHSWISTW [sma24] as the sequence, how does the “Binding to wild type S. mutans” value [4] read?
The value was “good binding activity and specificity; also recorded: strong binding”.

And the “Binding to S. mutans gtfB mutant unable to synthesize extracellular glucan” value [5]?
Its value is “reduced binding”.
